Entries after “also recorded” stand apart in the source; their conditions may differ.
Tests used:
[1] = tested on: porcine model of acute posterior uveitis (intravitreal LPS); assay: Porcine model of acute uveitis: ocular histopathology; format: in vivo, pigs
[2] = tested on: porcine model of acute posterior uveitis (intravitreal LPS); assay: Porcine model of acute uveitis: intraocular pressure (TonoVet); format: in vivo, pigs; details: Day 3, low dose 0.1 mg/kg/day PO, P<0.0065
Protocol: (§1) Twenty four hours after the induction of acute uveitis by intraocular lipopolysaccharide (LPS) injection (Day 0) into the vitreous, 50 μL of balanced salt solution (BSS, Group 1) or triamcinolone (CLS-TA) (2 mg, Group 3) was injected into the suprachoroidal space (SCS). In Groups 2 and 4, oral prednisone (1 mg/kg/day, Group 2 or 0.1 mg/kg/day, Group 4) was dosed on Day 0, and repeated every 24 hours until euthanasia on day 3. Eyes were examined every 24 hours, which included measuring inflammation scores (Modified Hackett-McDonald) and intraocular pressure (TOP) until euthanasia 3 days after initiation of treatment. Safety assessments and histopathology were performed on all eyes. Electroretinography and wide-field fundus photography was performed at −24 hours, time 0 (before treatment) and on Day 3. Histopathology was performed on eyes after euthanasia.
Treatment. […]
Intraocular Pressure. Intraocular pressure (TOP) was measured with the pigs awake and hand restrained at −144, −96, −24, 0, 24, 48, and 72 hours (see FIG. 1) using a TonoVet Tonometer (iCare, Finland). […] After the six measurements, the mean IOP was shown on the display providing the IOP that was recorded.
Data and Statistical Analysis. […] Results and probabilities were calculated using computerized statistical software (JMP 10, SAS Inc. Cary, N.C.).

[3] = tested on: porcine model of acute posterior uveitis (intravitreal LPS); assay: Porcine model of acute uveitis: wide-field ocular fundus digital photography; format: in vivo, pigs; details: 72 hours
Protocol: as §1, with “-24” for “−24”, “euthanasia. Wide-field Ocular Fundus Digital Photography. With the pigs anesthetized at times -24, 0 and 72 hours, and pupils dilated with tropicamide 1%, the ocular fundus was photographed with standardized illumination and focus using a wide-field digital imaging system ([…], Clarity Medical Systems, Pleasanton, Calif.).” for “euthanasia.”

[4] = tested on: porcine model of acute posterior uveitis (intravitreal LPS); assay: Porcine model of acute uveitis: modified Hackett-McDonald ocular inflammation score; format: in vivo, pigs
[5] = tested on: patients; details: in vivo; cited from earlier work
[6] = tested on: patients with non-infectious uveitis; assay: Phase 1/2 open-label safety and tolerability study of TA administered to the suprachoroidal space; format: in vivo, human
Protocol: A clinical trial was designed to evaluate the safety and tolerability of a single injection of TA (triamcinolone acetonide administered as TRIESCENCE™) into the SCS in patients diagnosed with non-infectious uveitis.
Each mL of the sterile, aqueous suspension of TRIESENCE™ provides […] of triamcinolone acetonide, with sodium chloride for isotonicity, 0.5% (w/v) carboxymethylcellulose sodium and 0.015% polysorbate 80. It also contains potassium chloride, calcium chloride (dihydrate), magnesium chloride (hexahydrate), sodium acetate (trihydrate), sodium citrate (dihydrate) and water for injection. Sodium hydroxide and hydrochloric acid may be present to adjust pH to a target value 6-7.5.
The primary purpose of this trial was to evaluate the overall safety and tolerability of treating uveitis patients (non-infectious uveitis—intermediate, posterior or pan-uveitis) by administering a triamcinolone into the SCS via a single suprachoroidal injection. Eligibility criteria include adult patients with non-infectious uveitis experiencing either macular edema or vitreous haze, a common complication of uveitis. This was in order to determine whether SCS administration of TA could improve patient vision through reducing the effects of either condition. For inclusion in the trial, patients must have IOP (intra-ocular pressure) of no greater than 22 mmHg
Each patient enrolled received a single SCS microinjection of 4.0 mg (100 μL) of triamcinolone acetonide of day 1. Patients returned for a follow-up examination on the day after the injection and then for eight additional evaluations at weeks 1, 2, 4, 8, 12, 16, 20 and 26 following the treatment. Patients may receive other treatment at any time during the trial with any accepted therapy based on their physician's best medical judgment, if their condition deteriorates or if the physician otherwise determines it to be advisable. In the event a patient received other treatment, the patient was followed for the duration of the trial for safety purposes, but efficacy measures were no longer considered thereafter.
Patients received the single SCS injection 4 mm posterior to limbus and received an ultrasound assessment of scleral thickness immediately after injection.
Endpoints. The main safety endpoint was changes from baseline in intraocular pressure (TOP). Also assessed was an efficacy endpoint relating to changes in best-corrected visual acuity, or BCVA, as well as changes in excess retinal thickness.

SMILES | mean histologic score of the posterior segment compared with low dose oral prednisone (Group 4) ([1]; high dose 1 mg/kg/day PO, P<0.013) | mean histologic score of the anterior segment compared with saline (Group 1) ([1]; oral 0.1 mg/kg/day (Group 4)) | mean histologic score of the anterior segment compared with saline (Group 1) ([1]; oral 1 mg/kg/day (Group 2)) | mean IOP compared with the other groups [2] | wide-field fundus images ([3]; high dose 1 mg/kg/day PO) | wide-field fundus images ([3]; low dose 0.1 mg/kg/day PO) | mean cumulative inflammation score compared with Group 1 (BSS) ([4]; Day 3 (72 hours), high dose 1 mg/kg/day PO, P<0.034) | mean cumulative inflammation score compared with saline treated eyes ([4]; any treatment time, low dose 0.1 mg/kg/day PO) | reduction of ocular inflammation relative to low dose prednisone ([4]; high dose 1 mg/kg/day PO) | time to reduction of inflammation ([4]; high dose 1 mg/kg/day PO) | patients with cataracts and increases in IOP levels [5] | patients with meaningful improvements in BCVA ([6]; 26 weeks after single SCS injection of TA on Day 1) | gain in BCVA ([6]; 26 weeks after single SCS injection, four of the eight patients) | decrease in retinal thickness (OCT), SCS injection compared to sub-tenon injection ([6]; one patient, bilateral uveitis, 4 mg TA SCS in one eye, 20 mg TA sub-tenon in the other eye) | OCT appearance of eye treated with TA via suprachoroidal injection vs Ozurdex treated eye ([6]; one patient, bilateral uveitis, four to six weeks after treatment) | average reduction in CME ([6]; seven patients, single TA injection into the SCS) | deaths ([6]; single SCS injection 4.0 mg (100 μL) TA, eight patients) | mean reduction in macular edema (retinal thickness) ([6]; week 26, single TA injection into the SCS, seven patients with macular edema)
C[C@]12C=CC(=O)C=C1CC[C@@H]1[C@@H]2C(=O)C[C@@]2(C)[C@H]1CC[C@]2(O)C(=O)CO [prednisone] | lower than the mean score of eyes treated with low dose oral prednisone | not significantly different than Group 1 | not significantly different than Group 1 | significantly lower than Groups 1, 2, and 3; also recorded: significantly lower IOP than all other groups | near pre-treatment appearance | only slightly improved over vehicle treated eyes | significantly lower | not significantly different than saline treated eyes | more effective than low dose prednisone | three days |  |  |  |  |  |  |  | 
CC1(C)O[C@@H]2C[C@H]3[C@@H]4CCC5=CC(=O)C=C[C@]5(C)[C@@]4(F)[C@@H](O)C[C@]3(C)[C@]2(C(=O)CO)O1 [TA, triamcinolone acetonide] |  |  |  |  |  |  |  |  |  |  | 20-60% | Four of the eight patients | about 3 lines | greater decrease in retinal thickness | looks better than the intravitreally Ozurdex treated eye | about 20% | No deaths | over 100 microns

Reference: US20180042765A1, “METHODS AND DEVICES FOR TREATING POSTERIOR OCULAR DISORDERS” (CLEARSIDE BIOMEDICAL, INC., priority 2014, published 2018)
